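1) Cells in 96-well plates. 2) Compound, 48 h, 5 concentrations. 3) Linear interpolation between surrounding doses. 4) Unreached endpoint = highest concentration. The concentration for full growth arrest is given as TGI.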
What was measured:
Test in all cases: DTP human tumour cell line panel, 48 h
SN12C renal = system: SN12C renal
SW-620 colon = system: SW-620 colon
DMS 273 small cell lung = system: DMS 273 small cell lung
XF 498 CNS = system: XF 498 CNS
NCI-H522 lung = system: NCI-H522 lung
HT29 colon = system: HT29 colon
SK-MEL-5 melanoma = system: SK-MEL-5 melanoma
UACC-62 melanoma = system: UACC-62 melanoma
RXF 393 renal = system: RXF 393 renal
KM12 colon = system: KM12 colon
TK-10 renal = system: TK-10 renal
RPMI-8226 leukemia = system: RPMI-8226 leukemia
SF-295 CNS = system: SF-295 CNS
SR leukemia = system: SR leukemia
HOP-62 NSCLC = system: HOP-62 NSCLC
LOX IMVI melanoma = system: LOX IMVI melanoma
DMS 114 small cell lung = system: DMS 114 small cell lung
M19-MEL melanoma = system: M19-MEL melanoma
CCRF-CEM leukemia = system: CCRF-CEM leukemia
NCI-H226 lung = system: NCI-H226 lung
IGROV1 ovarian = system: IGROV1 ovarian
OVCAR-5 ovarian = system: OVCAR-5 ovarian
ACHN renal = system: ACHN renal
OVCAR-8 ovarian = system: OVCAR-8 ovarian
SF-539 CNS = system: SF-539 CNS
HCT-116 colon = system: HCT-116 colon
K-562 leukemia = system: K-562 leukemia
SK-MEL-28 melanoma = system: SK-MEL-28 melanoma
EKVX NSCLC = system: EKVX NSCLC
SNB-75 CNS = system: SNB-75 CNS
786-0 renal = system: 786-0 renal
COLO 205 colon = system: COLO 205 colon
OVCAR-4 ovarian = system: OVCAR-4 ovarian
A549 NSCLC = system: A549 NSCLC
LXFL 529 NSCLC = system: LXFL 529 NSCLC
SF-268 CNS = system: SF-268 CNS
M14 melanoma = system: M14 melanoma
MOLT-4 leukemia = system: MOLT-4 leukemia
U251 CNS = system: U251 CNS
SNB-19 CNS = system: SNB-19 CNS
HL-60(TB) leukemia = system: HL-60(TB) leukemia
HCT-15 colon = system: HCT-15 colon
MALME-3M melanoma = system: MALME-3M melanoma
NCI-H460 lung = system: NCI-H460 lung
NCI-H23 lung = system: NCI-H23 lung
SK-MEL-2 melanoma = system: SK-MEL-2 melanoma
KM20L2 colon = system: KM20L2 colon
UO-31 renal = system: UO-31 renal
OVCAR-3 ovarian = system: OVCAR-3 ovarian
HCC-2998 colon = system: HCC-2998 colon
A498 renal = system: A498 renal
DLD-1 colon = system: DLD-1 colon
UACC-257 melanoma = system: UACC-257 melanoma
SNB-78 CNS = system: SNB-78 CNS
HOP-92 NSCLC = system: HOP-92 NSCLC
SK-OV-3 ovarian = system: SK-OV-3 ovarian
HOP-18 NSCLC = system: HOP-18 NSCLC

Measured: TGI

Nc1nc(-c2ccco2)cc(-c2ccco2)n1
not listed: HCC-2998 colon | A498 renal | DLD-1 colon | UACC-257 melanoma | SNB-78 CNS | HOP-92 NSCLC | SK-OV-3 ovarian | HOP-18 NSCLC
> 100 µM: all other assays above

C=CCOC(C)n1c(C)cc(=O)n(C(C)OCC=C)c1=O (stereo not drawn)
not listed: XF 498 CNS | KM12 colon | TK-10 renal | LOX IMVI melanoma | OVCAR-5 ovarian | NCI-H460 lung | SK-MEL-2 melanoma | OVCAR-3 ovarian
> 100 µM: all other assays above
